Our source for the Kd values is PMC10442912 (2023).

The test system of test [1] is CAP1 (DNA, aptamer) CGACATAGAGGATCCATCTTGGGGTGTGTAGTGTGTCG
Nature of the test: fluorescence titration. The note with it: 10 mM Mg2+; 20 mM Tris-HCl pH 7.8; CAP1 titrated into 2.5 μM ThT.

Test [2] shares this test system. In words: ITC. The note with it: 300 mM Na+, 5 mM K+, 10 mM Mg2+; 50 mM Tris-HCl pH 7.8, 25 °C, preannealed.
For test [3] the test system is unchanged. Nature of the test: ThT fluorescence displacement. The following applies: 10 mM Mg2+; 50 mM Tris-HCl pH 7.8; 1 μM aptamer, 0.5 μM ThT displaced.
The subject of test [4] is CAP3 (DNA, aptamer) CGACCTAGTGTCCATCGTTCAGTTCCGATTTCTGGTCG
Nature of the test: ThT fluorescence displacement. The note with it: 10 mM Mg2+; 50 mM Tris-HCl pH 7.8; 1 μM aptamer, 0.5 μM ThT displaced.

With `Cc1ccc2c(c1)sc(-c1ccc(N(C)C)cc1)[n+]2C`, the Kd (as a rule, the equilibrium constant for the complex coming apart) in test [1] was found to be 2.3 µM.
Take `O=C(N[C@H](CO)[C@H](O)c1ccc([N+](=O)[O-])cc1)C(Cl)Cl`: the Kd in test [2] amounted to 9.8 ± 0.5 µM; in test [3], 4.2 µM; in test [4] it was 46 µM.
